Source: patent publication US20140005164A1, “WNT PATHWAY ANTAGONISTS” (Siena Biotech S.p.A., priority 2011, published 2014)

System: Wnt/β-catenin pathway
Assay: Wnt reporter assay (TCF-Luciferase, Firefly) in DBTRG-05MG cells
Assay type: cell-based
Details: Homo sapiens, TCF-Luciferase (Firefly) read out, 24 hours after compound addition, range given with mixed units nM and μM, read-out: IC50 value in the reporter assay
Experimental: Three copies of a 4×TCF responsive elements were cloned into the pcDNA3.1/Zeo(+) vector (Invitrogen) after deletion of the constitutive CMV promoter and the insertion of the Firefly Luciferase from Promega (phFL-TK) to measure the activity of the Wnt/β-catenin pathway. The resulting plasmid was sequenced for quality control.
Cells were grown in 20 μg/ml Zeocin and 20 μg/ml Zeocin plus 30 μg/ml Hygromicin respectively. The cells were plated at a density of 6500 cells/well in poly-D-lysine pre-treated 96 well-plates.
36 hours after plating cells were incubated with 8-points dilutions compound (0.6% DMSO (v/v)). Each compound was tested in triplicate in single plate. Luciferase detection was done with Dual-Luciferase Reporter Assay System (Promega). 24 hours after compound addition, media was removed and 30 μl of 1× lysis buffer was added to each well for 30 minutes. To each well 45 μl of Dual-Glo Luciferase reagent (Promega) were added and after 1 second delay Luciferase was detected for 1 second using Mithras LB940 instrument. After Firefly luciferase quantification 45 μl of Dual Stop & Glo reagent (Promega) were added to each well and […] Renilla was detected using the same parameters described before.
Data were expressed as % of control for Firefly and Renilla luciferase independently; values were calculated using XLFit version 4.2, with a four parameters sigmoid function (XLFit model 205).

Work on `COc1ccc2c(c1)n(C[C@H]1CC[C@H](C(=O)N3CCN(c4cncnc4)CC3)CC1)c(=O)n2C` [Example 20, 5-Methoxy-1-methyl-3-[trans-4-(4-pyrimidin-5-yl-piperazine-1-carbonyl)-cyclohexylmethyl]-1,3-dihydro-benzoimidazol-2-one] yielded an IC50 of 35 to 23000 nM.

`COCCNc1ccc2c(n1)n(C[C@H]1CC[C@H](C(=O)Nc3ccncc3)CC1)c(=O)n2C` [Example 125] gave an IC50 of 35 to 23000 nM.

In the case of `COc1ccc(-c2nc([C@H]3CC[C@H](Cn4c(=O)n(C)c5ccc(OC)cc54)CC3)no2)cc1` [Example 18, 5-Methoxy-3-{trans-4-[5-(4-methoxy-phenyl)[1,2,4]oxadiazol-3-yl]-cyclohexylmethyl}-1-methyl-1,3-dihydro-benzoimidazol-2-one], the IC50 is reported as 35 to 23000 nM.

`COCCOc1ccc2c(n1)n(C[C@H]1CC[C@H](C(=O)Nc3ccnnc3)CC1)c(=O)n2C` [Example 173] was tested, and the IC50 was 35 to 23000 nM.

With `Cn1c(=O)n(C[C@H]2CC[C@H](C(=O)Nc3ccncc3)CC2)c2nc(NCc3ccco3)ccc21` [Example 127] the IC50 was 35 to 23000 nM.

For `COc1ccc2c(c1)n(C[C@H]1CC[C@H](C(=O)N3CCN(c4cnn(C)c4)CC3)CC1)c(=O)n2C` [Example 141], the IC50 was 35 to 23000 nM.

Compound `COC/C=C/c1ccc2c(n1)n(C[C@H]1CC[C@H](C(=O)Nc3ccncc3)CC1)c(=O)n2C` [Example 114] has an IC50 of 35 to 23000 nM.

With `COCCOc1ccc2c(c1)n(C[C@H]1CC[C@H](c3nnc(-c4cccnn4)o3)CC1)c(=O)n2C` [Example 163] the IC50 was 35 to 23000 nM.

`Cn1c(=O)n(C[C@H]2CC[C@H](C(=O)Nc3ccncc3)CC2)c2nc(C3CC3)ccc21` [Example 170] was tested, and the IC50 was 35 to 23000 nM.

`Cn1c(=O)n(C[C@H]2CC[C@H](C(=O)Nc3ccncc3)CC2)c2nc(OCC(F)(F)F)ccc21` [Example 171] gave an IC50 of 35 to 23000 nM.

`Cn1c(=O)n(C[C@H]2CC[C@H](c3nnc(-c4cccnc4)o3)CC2)c2cc(C#N)ccc21` [Example 124] was tested, and the IC50 was 35 to 23000 nM.

`COCCOc1cc(NC(=O)[C@H]2CC[C@H](Cn3c(=O)n(C)c4ccc(Cl)cc43)CC2)ccn1` [Example 40] gave an IC50 of 35 to 23000 nM.

`COc1ccc2c(c1)n(C[C@H]1CC[C@H](c3nnc(C4CCOCC4)o3)CC1)c(=O)n2C` [Example 145] showed an IC50 of 35 to 23000 nM.

In the case of `COCCOCCOc1ccc2c(c1)n(C[C@H]1CC[C@H](C(=O)Nc3ccncc3)CC1)c(=O)n2C` [Example 129], the IC50 is reported as 35 to 23000 nM.

`Cn1c(=O)n(C[C@H]2CC[C@H](C(=O)Nc3ccncc3)CC2)c2cc(Br)ccc21` [Example 111] showed an IC50 of 35 to 23000 nM.

`COc1cc2c(cc1F)n(C)c(=O)n2C[C@H]1CC[C@H](C(=O)N2CCN(c3cnn(C)c3)CC2)CC1` [Example 183] gave an IC50 of 35 to 23000 nM.

Work on `COc1cc2c(cc1F)n(C)c(=O)n2C[C@H]1CC[C@H](C(=O)N2C[C@@H](C)O[C@@H](C)C2)CC1` [Example 179] yielded an IC50 of 35 to 23000 nM.

In the case of `Cn1c(=O)n(C[C@H]2CC[C@H](C(=O)Nc3ccnc(N4CCOCC4)c3)CC2)c2cccc(Cl)c21` [Example 43], the IC50 is reported as 35 to 23000 nM.

Compound `COc1ccc2c(c1)n(C[C@H]1CC[C@H](C(=O)N3CCN(c4ccncc4)CC3)CC1)c(=O)n2C` [Example 76] has an IC50 of 35 to 23000 nM.

With `COCCNc1ccc2c(c1)n(C[C@H]1CC[C@H](C(=O)Nc3ccncc3)CC1)c(=O)n2C` [Example 78] the IC50 was 35 to 23000 nM.

For `COCCOc1cc2c(cc1F)n(C)c(=O)n2C[C@H]1CC[C@H](C(=O)Nc2ccnnc2)CC1` [Example 176], the IC50 was 35 to 23000 nM.

`Cc1cc(NC(=O)[C@H]2CC[C@H](Cn3c(=O)n(C)c4ccc(Cl)cc43)CC2)ccn1` [Example 39] showed an IC50 of 35 to 23000 nM.

`COC/C=C/c1ccc2c(c1)n(C[C@H]1CC[C@H](C(=O)Nc3ccncc3)CC1)c(=O)n2C` [Example 113] showed an IC50 of 35 to 23000 nM.

`COc1ccc2c(c1)n(C[C@H]1CC[C@H](C(=O)N3CCC(c4cnccn4)CC3)CC1)c(=O)n2C` [Example 83] showed an IC50 of 35 to 23000 nM.

`Cn1c(=O)n(C[C@H]2CC[C@H](C(=O)N3CCN(c4nccs4)CC3)CC2)c2c(Cl)cccc21` [Example 23] was tested, and the IC50 was 35 to 23000 nM.

`COc1ccc2c(c1)n(C[C@H]1CC[C@H](c3cc(-c4ccncc4)n[nH]3)CC1)c(=O)n2C` [Example 13, 5-Methoxy-1-methyl-3-[trans-4-(5-pyridin-4-yl-2H-pyrazol-3-yl)-cyclohexylmethyl]-1,3-dihydro-benzoimidazol-2-one] was tested, and the IC50 was 35 to 23000 nM.

`COc1ccc2c(c1)n(C[C@H]1CC[C@H](C(=O)Nc3cccc4oc(C5CC5)nc34)CC1)c(=O)n2C` [Example 67] gave an IC50 of 35 to 23000 nM.

For `COCCOc1ccc2c(n1)n(C[C@H]1CC[C@H](c3nnc(-c4cccnc4)o3)CC1)c(=O)n2C` [Example 181], the IC50 was 35 to 23000 nM.

Compound `COc1cc2c(cc1F)n(C)c(=O)n2C[C@H]1CC[C@H](C(=O)N2CC=C(c3cnn(C)c3)CC2)CC1` [Example 143] has an IC50 of 35 to 23000 nM.

Work on `COCCOc1ccc2c(c1)n(C[C@H]1CC[C@H](c3nnc(-c4cccnc4)o3)CC1)c(=O)n2C` [Example 146] yielded an IC50 of 35 to 23000 nM.

Work on `Cn1cc(-c2nnc([C@H]3CC[C@H](Cn4c(=O)n(C)c5ccc(C#N)cc54)CC3)o2)cn1` [Example 162] yielded an IC50 of 35 to 23000 nM.

Compound `Cn1c(=O)n(C[C@H]2CC[C@H](C(=O)N3CCN(c4nccs4)CC3)CC2)c2cc(C(F)(F)F)ccc21` [Example 24] has an IC50 of 35 to 23000 nM.

`COc1ccc2c(c1)n(C[C@H]1CC[C@H](C(=O)Nc3ccn(C)n3)CC1)c(=O)n2C` [Example 133] was tested, and the IC50 was 35 to 23000 nM.

With `COc1cc(NC(=O)[C@H]2CC[C@H](Cn3c(=O)n(C)c4c(Cl)cccc43)CC2)ccn1` [Example 58] the IC50 was 35 to 23000 nM.

`COc1ccc2c(c1)n(C[C@H]1CC[C@H](C(=O)N3CCN(c4cc(C)no4)CC3)CC1)c(=O)n2C` [Example 144] gave an IC50 of 35 to 23000 nM.

With `COCCOc1ccc2c(c1)n(C[C@H]1CC[C@H](C(=O)Nc3ccncn3)CC1)c(=O)n2C` [Example 122] the IC50 was 35 to 23000 nM.

For `COc1ccc2c(c1)n(C[C@H]1CC[C@H](C(=O)N3CCN(c4ccc(C#N)nc4)CC3)CC1)c(=O)n2C` [Example 88], the IC50 was 35 to 23000 nM.

For `COc1ccc2c(c1)n(C[C@H]1CC[C@H](C(=O)N3CCN(c4nccc(OC)n4)CC3)CC1)c(=O)n2C` [Example 51], the IC50 was 35 to 23000 nM.

In the case of `COc1ccc2c(c1)n(C[C@H]1CC[C@H](c3nnc(-c4ccncc4F)o3)CC1)c(=O)n2C` [Example 109], the IC50 is reported as 35 to 23000 nM.

In the case of `COc1ccc2c(c1)n(C[C@H]1CC[C@H](c3nnc(-c4c(C)nn(C)c4C)o3)CC1)c(=O)n2C` [Example 148], the IC50 is reported as 35 to 23000 nM.

Compound `Cn1c(=O)n(C[C@H]2CC[C@H](C(=O)Nc3ccncc3)CC2)c2nc(NCc3cccnc3)ccc21` [Example 126] has an IC50 of 35 to 23000 nM.

`COCC#Cc1ccc2c(n1)n(C[C@H]1CC[C@H](C(=O)N3CCN(C(C)=O)CC3)CC1)c(=O)n2C` [Example 102] gave an IC50 of 35 to 23000 nM.

`COCCNc1ccc2c(c1)n(C[C@H]1CC[C@H](C(=O)N3CCN(C(C)=O)CC3)CC1)c(=O)n2C` [Example 15, 3-[trans-4-(4-Acetyl-piperazine-1-carbonyl)-cyclohexylmethyl]-5-(2-methoxy-ethylamino)-1-methyl-1,3-dihydro-benzoimidazol-2-one] gave an IC50 of 35 to 23000 nM.

For `COc1ccc2c(c1)n(C[C@H]1CC[C@H](c3c[nH]c(NC(C)=O)n3)CC1)c(=O)n2C` [Example 19, N-{4-[trans-4-(6-Methoxy-3-methyl-2-oxo-2,3-dihydro-benzoimidazol-1-ylmethyl)-cyclohexyl]-1H-imidazol-2-yl}-acetamide], the IC50 was 35 to 23000 nM.

Compound `Cn1c(=O)n(C[C@H]2CC[C@H](C(=O)Nc3ccncc3)CC2)c2cc(OC(F)F)ccc21` [Example 165] has an IC50 of 35 to 23000 nM.
